Laboratory results as given in PubChem BioAssay AID1745844 (Carcinogenic Potency Database (CPDB), 2022).
“And” between values parts separate entries of the source, which are not always exact repeats. Identical values can stand only once. The source made the active and inactive calls. No rule for the calls is given here.

Tested on: rodent lifetime carcinogenesis bioassay, tumor incidence TD50
Test: carcinogenic potency in animals, long-term in vivo studies, CPDB compilation (AID 1745844)

`CCOC(=O)CC(SP(=O)(OC)OC)C(=O)OCC` (stereo not given) was tested, and the carcinogen call (mouse, strain B6C3F1, females, in feed, site: any site (literature study), lesion: several types, types named in the paper, dosed 103 weeks, study length 103 weeks) was “negative (inactive)”, the TD50 (mouse, strain B6C3F1, females, in feed, site: lung, lesion: alveolar/bronchiolar adenoma + alveolar/bronchiolar carcinoma, dosed 103 weeks, study length 103 weeks) was 2760 mg/kg/day and the TD50 (mouse, strain B6C3F1, males, in feed, site: any site (literature study), lesion: several types, types named in the paper, dosed 103 weeks, study length 103 weeks) was 472 mg/kg/day (inactive). The TD50 (mouse, strain B6C3F1, males, in feed, site: liver, lesion: hepatocellular adenoma + hepatocellular carcinoma + neoplastic nodule, dosed 103 weeks, study length 103 weeks) was 579 mg/kg/day, the TD50 (mouse, strain B6C3F1, males, in feed, site: lung, lesion: alveolar/bronchiolar adenoma + alveolar/bronchiolar carcinoma, dosed 103 weeks, study length 103 weeks) was 3230 mg/kg/day and the TD50 (rat, strain Fischer 344, females, in feed, site: thyroid gland, lesion: c-cell adenoma + c-cell carcinoma, dosed 103 weeks, study length 104 weeks) was 296 mg/kg/day (inactive). The carcinogen call (rat, strain Fischer 344, males, in feed, site: any site (literature study), lesion: several types, types named in the paper, dosed 103 weeks, study length 104 weeks) was “negative (inactive)” and the TD50 (rat, strain Fischer 344, males, in feed, site: liver, lesion: hepatocellular adenoma + hepatocellular carcinoma + neoplastic nodule, dosed 103 weeks, study length 104 weeks) was 1560 mg/kg/day.
Work on `CCCCCN(CCCCC)N=O` yielded a TD50 (rat, strain Fischer 344, females, in feed, site: liver, lesion: hepatocellular carcinoma, dosed 99 weeks, study length 104 weeks) of 7.57 mg/kg/day and a TD50 (rat, strain Fischer 344, males, in feed, site: liver, lesion: hepatocellular carcinoma, dosed 89 weeks, study length 104 weeks) of 2.75 mg/kg/day.
With `CN1CCC[C@H]1c1cccnc1` the carcinogen call (mouse, strain Swiss albino, females, in drinking water, site: liver, lesion: several types, types named in the paper, dosed 121 weeks, study length 123 weeks) was “negative (inactive)”, the TD50 (mouse, strain Swiss albino, females, in drinking water, site: lung, lesion: one or several types, types not named, dosed 121 weeks, study length 123 weeks) was 11100 mg/kg/day (inactive) and the carcinogen call (mouse, strain Swiss albino, males, in drinking water, site: liver, lesion: several types, types named in the paper, dosed 114 weeks, study length 120 weeks) was “negative (inactive)”. The carcinogen call (mouse, strain Swiss albino, males, in drinking water, site: lung, lesion: one or several types, types not named, dosed 114 weeks, study length 120 weeks) was “negative (inactive)”, the carcinogen call (rat, strain Sprague-Dawley, females, i.p., site: any site (literature study), lesion: malignant tumor, dosed 104 weeks, study length 104 weeks) was “negative (inactive)” and the TD50 (rat, strain Sprague-Dawley, males, i.p., site: any site (literature study), lesion: malignant tumor, dosed 104 weeks, study length 104 weeks) was 6.38 mg/kg/day (inactive).
In the case of `ClC/C=C/CCl`, the TD50 (mouse, strain Ha/ICR, females, i.p., site: abdomen, lesion: sarcoma, dosed 76 weeks, study length 76 weeks) is reported as 1.52 mg/kg/day.
`C#CC1(O)CC[C@H]2[C@@H]3CCC4=CCCC[C@@H]4[C@H]3CC[C@@]21C` (stereo not given in full) gave a TD50 (dog, strain Beagle, females, in feed, site: mammary gland, lesion: carcinoma, dosed 364 weeks, study length 364 weeks) of 0.58 mg/kg/day.
In the case of `Nc1ccc(NC(=O)c2ccc(N)cc2)cc1`, the carcinogen call (mouse, strain BALB/cLacDp, females, in feed, site: liver, lesion: several types, types named in the paper, dosed 60 weeks, study length 132 weeks) is reported as “negative (inactive)”, the TD50 (mouse, strain BALB/cLacDp, females, in feed, site: lung, lesion: several types, types named in the paper, dosed 60 weeks, study length 132 weeks) is reported as 360 mg/kg/day (inactive) and the carcinogen call (mouse, strain BALB/cLacDp, males, in feed, site: liver, lesion: several types, types named in the paper, dosed 60 weeks, study length 132 weeks) is reported as “negative (inactive)”. The carcinogen call (mouse, strain BALB/cLacDp, males, in feed, site: lung, lesion: several types, types named in the paper, dosed 60 weeks, study length 132 weeks) was “negative (inactive)”.
For `OCc1ccco1`, the carcinogen call (mouse, strain B6C3F1, females, inhaled, site: any site (literature study), lesion: several types, types named in the paper, dosed 104 weeks, study length 104 weeks) was “negative (inactive)”, the TD50 (mouse, strain B6C3F1, females, inhaled, site: lung, lesion: alveolar/bronchiolar adenoma + alveolar/bronchiolar carcinoma, dosed 104 weeks, study length 104 weeks) was 41.8 mg/kg/day and the TD50 (mouse, strain B6C3F1, males, inhaled, site: kidney, lesion: tubule adenoma + tubule carcinoma, dosed 104 weeks, study length 104 weeks) was 263 mg/kg/day and 291 mg/kg/day. For the same compound, the TD50 (mouse, strain B6C3F1, males, inhaled, site: kidney, lesion: tubule adenoma, dosed 104 weeks, study length 104 weeks) was 538 mg/kg/day and 492 mg/kg/day, the TD50 (mouse, strain B6C3F1, males, inhaled, site: kidney, lesion: tubule carcinoma, dosed 104 weeks, study length 104 weeks) was 538 mg/kg/day and 744 mg/kg/day and the TD50 (rat, strain Fischer 344, females, inhaled, site: all sites, lesion: mononuclear-cell leukemia, dosed 105 weeks, study length 105 weeks) was 10.1 mg/kg/day. The TD50 (rat, strain Fischer 344, females, inhaled, site: any site (literature study), lesion: several types, types named in the paper, dosed 105 weeks, study length 105 weeks) was 7.57 mg/kg/day, the TD50 (rat, strain Fischer 344, females, inhaled, site: clitoral gland, lesion: adenoma + adenoma, bilateral + carcinoma + carcinoma, bilateral, dosed 105 weeks, study length 105 weeks) was 27.8 mg/kg/day and the TD50 (rat, strain Fischer 344, females, inhaled, site: clitoral gland, lesion: adenoma + adenoma, bilateral, dosed 105 weeks, study length 105 weeks) was 35.7 mg/kg/day. For the same compound, the TD50 (rat, strain Fischer 344, females, inhaled, site: kidney, lesion: tubule adenoma + tubule carcinoma, dosed 105 weeks, study length 105 weeks) was 110 mg/kg/day and 161 mg/kg/day, the TD50 (rat, strain Fischer 344, females, inhaled, site: kidney, lesion: tubule adenoma, dosed 105 weeks, study length 105 weeks) was 113 mg/kg/day and 108 mg/kg/day and the carcinogen call (rat, strain Fischer 344, females, inhaled, site: nasal cavity, respiratory epithelium, lateral wall, lesion: adenoma, dosed 105 weeks, study length 105 weeks) was “e”. It also gave a TD50 (rat, strain Fischer 344, females, inhaled, site: nasal cavity, respiratory epithelium, lesion: adenoma, dosed 105 weeks, study length 105 weeks) of 161 mg/kg/day, a TD50 (rat, strain Fischer 344, males, inhaled, site: Zymbal's gland, lesion: adenoma + carcinoma, dosed 102 weeks, study length 105 weeks) of 17.4 mg/kg/day and a TD50 (rat, strain Fischer 344, males, inhaled, site: any site (literature study), lesion: several types, types named in the paper, dosed 102 weeks, study length 105 weeks) of 1.46 mg/kg/day. For the same compound, the TD50 (rat, strain Fischer 344, males, inhaled, site: nasal cavity, respiratory epithelium, lateral wall + nasal cavity, respiratory epithelium, lesion: adenoma + carcinoma + squamous-cell carcinoma, dosed 102 weeks, study length 105 weeks) was 9.6 mg/kg/day and the TD50 (rat, strain Fischer 344, males, inhaled, site: nasal cavity, respiratory epithelium, lesion: squamous-cell carcinoma, dosed 102 weeks, study length 105 weeks) was 46.4 mg/kg/day.
For `CCOP(=S)(OCC)SC1OCCOC1SP(=S)(OCC)OCC` (stereo not given), the TD50 (mouse, strain B6C3F1, females, in feed, site: any site (literature study), lesion: several types, types named in the paper, dosed 78 weeks, study length 90 weeks) was 2590 mg/kg/day (inactive), the TD50 (mouse, strain B6C3F1, females, in feed, site: lung, lesion: alveolar/bronchiolar adenoma + alveolar/bronchiolar carcinoma, dosed 78 weeks, study length 90 weeks) was 1820 mg/kg/day and the carcinogen call (mouse, strain B6C3F1, males, in feed, site: any site (literature study), lesion: several types, types named in the paper, dosed 78 weeks, study length 90 weeks) was “negative (inactive)”. The TD50 (mouse, strain B6C3F1, males, in feed, site: lung, lesion: alveolar/bronchiolar adenoma + alveolar/bronchiolar carcinoma, dosed 78 weeks, study length 90 weeks) was 628 mg/kg/day, the carcinogen call (rat, strain Osborne-Mendel, females, in feed, site: any site (literature study), lesion: several types, types named in the paper, dosed 78 weeks, study length 111 weeks) was “negative (inactive)” and the carcinogen call (rat, strain Osborne-Mendel, males, in feed, site: any site (literature study), lesion: several types, types named in the paper, dosed 78 weeks, study length 111 weeks) was “negative (inactive)”.
